Counter-ions that a name gives are not always drawn. Like-named read-outs stand apart in the source and are kept apart here.
Experiments:
Type in all cases: cell-based
Candida albicans = assay: MIC growth test (malt extract Bouillon)
Experimental: (§1) The growth of bacteria and fungi upon the addition of different biocidal mixtures was tested. The concentration above which growth is no longer detected is given as the minimum inhibitory concentration (MIC). The precultivation of the bacteria which were used in the test was performed on tryptone soya agar. The precultivation of the fungi which were used in the test was performed on malt extract agar. The growth in the MIC tests was checked in tryptone soya broth (bacteria) or malt extract Bouillon (fungi). The organisms were incubated at 26° C. and a relative […] humidity of 70 to 80%. The bacteria were evaluated after 4 days, and the fungi were evaluated […] after 7 days.
(§2) The synergistic index (SI) was determined in accordance with the method described by Kull et al. (F. C. Kull et al., Applied Microbiology 9 (1961), 538-541).
(§3) The following equation applies here: SI=QA/Qa+QB/Qb

Pseudomonas aeruginosa = assay: MIC growth test (tryptone soya broth)
Experimental: as §1, §2, §3

Alcaligenes faecalis = assay: MIC growth test (tryptone soya broth)
Experimental: as §1, §2, §3

Proteus hauseri = assay: MIC growth test (tryptone soya broth)
Experimental: as §1, §2, §3

Enterococcus hirae = assay: MIC growth test (tryptone soya broth)
Experimental: as §1, §2, §3

Citrobacter freundii = assay: MIC growth test (tryptone soya broth)
Experimental: as §1, §2, §3

[1] = tested on: Corynebacterium ammoniagenes; assay: MIC growth test (tryptone soya broth)
Experimental: as §1, §2, §3

Bacillus subtilis = assay: MIC growth test (tryptone soya broth)
Experimental: as §1, §2, §3

Pseudomonas stutzeri = assay: MIC growth test (tryptone soya broth)
Experimental: as §1, §2, §3

Enterobacter aerogenes = assay: MIC growth test (tryptone soya broth)
Experimental: as §1, §2, §3

Staphylococcus aureus = assay: MIC growth test (tryptone soya broth)
Experimental: as §1, §2, §3

Paecilomyces formosus = assay: MIC growth test (malt extract Bouillon)
Experimental: as §1, §2, §3

Stachybotrys chartarum = assay: MIC growth test (malt extract Bouillon)
Experimental: as §1, §2, §3

Geotrichum candidum = assay: MIC growth test (malt extract Bouillon)
Experimental: as §1, §2, §3

Penicillium pinophilum = assay: MIC growth test (malt extract Bouillon); conditions: Talaromyces pinophilus
Experimental: as §1, §2, §3

Alternaria alternata = assay: MIC growth test (malt extract Bouillon)
Experimental: as §1, §2, §3

Escherichia coli = assay: MIC growth test (tryptone soya broth)
Experimental: as §1, §2, §3

Salmonella enterica = assay: MIC growth test (tryptone soya broth); conditions: Example 3, Table 11
Experimental: as §1, §2, §3

O=c1[nH]sc2ccccc12 [BIT, 1,2-benzisothiazolin-3-one]
MIC (Candida albicans; Example 3, Table 17): 25 ppm
MIC (Pseudomonas aeruginosa; Example 3, Table 11): 50 ppm
MIC (Alcaligenes faecalis; Example 3, Table 11): 2.5 ppm
MIC (Proteus hauseri; Example 3, Table 11): 7.5 ppm
MIC (Enterococcus hirae; Example 3, Table 11): 10 ppm
MIC (Citrobacter freundii; Example 3, Table 11): 10 ppm
MIC ([1]; Example 3, Table 11): 37.5 ppm
MIC (Bacillus subtilis; Example 3, Table 11): 5 ppm
MIC (Pseudomonas stutzeri; Pseudomonas stutzeri, Example 3, Table 11): 10 ppm
MIC (Enterobacter aerogenes; Enterobacter aerogenes, Example 3, Table 11): 25 ppm
MIC (Staphylococcus aureus; Example 3, Table 14): 5 ppm

CCCCCCCCCCCCNC(=N)N [DGH, dodecylguanidine hydrochloride]
MIC (Paecilomyces formosus): 5 µg/mL
MIC (Stachybotrys chartarum; Example 2, Table 10): 7.5 µg/mL
MIC (Stachybotrys chartarum; Example 4, Table 23): 10 µg/mL
MIC (Geotrichum candidum): 10 µg/mL
MIC (Penicillium pinophilum): 7.5 µg/mL
MIC (Alternaria alternata): 10 µg/mL
MIC (Candida albicans): 25 µg/mL
MIC (Escherichia coli): 5 µg/mL
MIC (Pseudomonas aeruginosa): 25 µg/mL
MIC (Alcaligenes faecalis): 10 µg/mL
MIC (Alcaligenes faecalis; Example 3, Table 11): 10 ppm
MIC (Proteus hauseri): 10 µg/mL
MIC (Enterococcus hirae): 2.5 µg/mL
MIC (Citrobacter freundii): 5 µg/mL
MIC (Citrobacter freundii; Example 3, Table 11): 5 ppm
MIC [1]: 2.5 µg/mL
MIC (Bacillus subtilis; Example 2, Table 7): 2.5 µg/mL
MIC (Bacillus subtilis; Example 3, Table 11): 3.75 µg/mL
MIC (Salmonella enterica): 10 µg/mL
MIC (Pseudomonas stutzeri; Stutzerimonas stutzeri): 5 µg/mL
MIC (Enterobacter aerogenes; Klebsiella aerogenes): 10 µg/mL
MIC (Staphylococcus aureus): 1 µg/mL
MIC (Staphylococcus aureus; Example 3, Table 14): 1 ppm

Cn1sccc1=O [MIT, 2-methyl-4-isothiazolin-3-one]
MIC (Stachybotrys chartarum; Example 4, Table 23): 250 µg/mL
MIC (Alternaria alternata): 100 µg/mL
MIC (Escherichia coli): 25 µg/mL

From US9693560B2, “Microbicide substances” (LANXESS Deutschland GmbH, priority 2013, dated 2017)
